Data: US20220241223A1, “USE OF DISULFIRAM OR ITS DERIVATIVES FOR THE TREATMENT OF MITOCHONDRIAL DISEASES OR DYSFUNCTION” (Universite D'angers, priority 2019, published 2022)

System: SHY1 Mutation G137R (shy1) yeast strain
Assay: Halo test of growth on respiratory medium
Type: cell-based, Saccharomyces cerevisiae
Conditions: FIG. 1B; shy1 mutant strain; 10 and 30 nmoles on filter
Protocol: Each of the various Saccharomyces cerevisiae yeast strains used in examples 1 to 3 contain different specific mutations modeling human mutations resulting in mitochondrial diseases. At different extents, all these yeast strains present growth defect when grown on respiratory medium such as ethanol or glycerol at 28° C. or 36° C. (depending on the strain). […]
More precisely, 200 μL of the various yeast mutant strain grown in liquid YPD rich fermentable medium (1% Yeast Extract, 0.5% Bacto Peptone, 2% Glucose) at 0.4 OD600 were spread on agar-based solid respiratory medium: either YPG (1% Yeast Extract, 0.5% Bacto Peptone, 2% glycerol) or YPE (1% Yeast Extract, 0.5% Bacto Peptone, 2% ethanol). Small sterile filters were then placed on the agar surface and increasing concentrations of DSF were added to the filters at the indicated quantities. […]

CCN(CC)C(=S)S.[Na+] [DEDTC, Sodium diethyldithiocarbamate]
effect on growth defect on non-fermentable (respiratory) medium: similarly suppresses the growth defect
